Experimental data as given in patent US7517654B2, “Peptide and a derivative thereof promoting cell adhesion and spreading” (Seoul National University Industry Foundation, priority 2004, dated 2009).
“Also recorded” adds a separate entry of the source.

How the values were obtained:
Format in all cases: cell-based, human
FAK = FAK phosphorylation assay (immunoblot, p-FAK/t-FAK); conditions: 15 min
Experimental: The FAK phosphorylation assays were performed according to a method of Shang et al. (J. Biol. Chem., 276:33045, 2001). In detail, the HOK-16B cells were trypsinized, washed, and kept in suspension in serum-free KGM with 0.1% BSA for 1 h at 37° C. The 60-mm culture dishes were coated with laminin (5 μg/ml) or rLG3 protein (25 μg/ml) at 4° C. overnight. Peptides (50 μg/60-mm culture dish) were also coated on dishes by drying overnight. For the adherent FAK assay, 1×10^6 cells were plated onto uncoated, laminin-coated, rLG3 protein-coated, or various peptide-coated dishes and allowed to attach for 15, 30, or 60 min at 37° C. in an atmosphere of 5% CO2. At the end of the incubation, cells were washed with ice-cold PBS and lysed in RIPA buffer (50 mM Tris [pH 7.4], 150 mM NaCl, 1% Nonidet P-40, 0.5% Na-deoxycholate, 1 mM EDTA, 0.1% SDS, 2 mM Na3VO4, 1 mM glycerol phosphate, 1 mM PMSF, and protease inhibitor cocktail). Lysates were clarified by centrifugation at 12,000×g for 10 min at 4° C. to isolate cytosolic extracts.
The cytosolic extracts were denatured using SDS sample buffer [50 mM Tris-HCl (pH 6.8), 2% SDS, 10% glycerol, 0.1% bromophenol blue, 100 mM β-mercaptoethanol] and separated on an 8% SDS-polyacrylamide gel. Electrophoretic transfer of SDS-PAGE gel separated with protein to a nitrocellulose membrane was followed by immnoblotting with polyclonal anti-FAK antibodies to determine the total FAK level or immnoblotting with polyclonal anti-FAK [pY^397], [pY^407], [pY^576], [pY^577] or [pY^861] antibodies to determine the extent of tyrosine phosphorylation. The relative fold induction of FAK phosphorylation, defined as an increase in FAK phosphorylation of a sample relative to its corresponding background level (i.e., cells plated on plastic) was determined as follows: First, the densitomerty intensity of the phosphorylated FAK (p-FAK) and the total FAK (t-FAK) signals from the Western blots were measured with a LAS-1000plus (Fuji photo film, Japan). The ratio of p-FAK to t-FAK (p-FAK/t-FAK) for each sample was then calculated to correct for differences in protein loading. This ratio was normalized to the p-FAK/t-FAK ratio of the negative controls to obtain the relative fold induction of FAK phosphorylation.
HOK-16B cells isolated by trypsinization were suspended for 1 hr, and kept in suspension (Sus), or replated on 60-mm culture dishes coated with or without laminin (5 μg/ml). The cells were kept for 15, 30, or 60 min for being attached on plates, then cell lysates were analyzed by immunoblot analysis with anti-FAK p-Y397 antibody (Biosource, Camariollo, Calif.). […] This effect was observed within 15 min and peaked at 15 min after exposure to the laminin-coated plate (FIG. 8A).
Therefore, the extent of FAK phosphorylation at Tyr-397,-407,-576, -577, and -861 was investigated in HOK-16B cells cultured on plates coated with laminin (5 μg/ml), rLG3 (25 μg/ml), or peptides P1-P5 (50 μg/60-mm dish) for 15 min. The lysates were immnoblotted with polyclonal anti-FAK, p-Y397, p-Y407, p-Y576, p-Y577 or p-Y861 antibodies (Biosoucce, Camariollo, Calif.), and the total FAK level was detected using anti-FAK antibodies (Upstate Biotechnology, Lake Placid, N.Y. The ratio of p-FAK to t-FAK (p-FAK/t-FAK) for each sample was then calculated to correct for differences in protein loading. This ratio was normalized to the p-FAK/t-FAK ratio of the negative controls (cells on plates) to obtain the relative fold induction of FAK phosphorylation. As a result, the extent of FAK phosphorylation at Tyr-397 cultured on the laminin-coated or rLG3 protein-coated plates increased 16.2- and 8.2-fold compared with the untreated control (FIG. 8B).

NHEK = test: Cell proliferation on coated plates, viable cell count by trypan blue exclusion; conditions: peptide P4 20 μg/12-well plate; 1-4 days; compared with PS-coated plate
Experimental: Normal human epidermal keratinocytes (NHEK) tissue samples were prepared from foreskin tissue of healthy 1- to 3-year-old people. The tissue samples were washed three times with calcium- and magnesium-free Hanks balanced salt solution containing 3× antibiotics (CMF-HBSS; GibcoBRL), and added with CMF-HBSS containing collgenase (collgenase type II, 1.0 mg/ml; sigma Chemical Co.) and dispase (dispase grade II, 2.4 mg/ml; Boeringer-Mannheim) to isolate epithelial layer from epidermal tissue, and then, cultured in 95% air and 5% CO2 at 37° C. for 90 min. NHEKs were prepared from the isolated epidermal tissue, and cultured in epithelial cell medium containing 0.15 mM calcium and growth factor bullet kit (KGM; Clonetics Corp.). When cell density was about 70%, NHEKs were divided into 1×10^5 cells per 60-mm petri dish and cultured until cell density reached about 70%. NHEKs were subcultured two times the same way as the above and used.
(§1) Polystyrene (PS), BSA (bovine serum albumin) and synthetic peptide P4 were coated on […]. NHEK (PD 13.0; 2×10^4 cells/12-well plate) and NHEF (passage number 4) cultures were added to the 12-well plate coated with the polystyrene (PS), BSA (1%) and synthetic peptide P4 (20 μg/12-well plate), and cultured for 1, 2, 3, or 4 days. Viable cells were counted by trypan blue exclusion in a hemocytometer. Data are expressed as mean ±SD (n=4).

NHEF = test: as above; conditions: peptide P4 20 μg/12-well plate; 1-4 days; compared with PS-coated plate
Excerpt: Normal human […] (NHEF) were taken from foreskin tissue of healthy 1- to 3-year-old people, and washed three times with calcium- and magnesium-free Hanks balanced salt solution containing 3× antibiotics (CMF-HBSS; GibcoBRL), and prepared by explant culture. When cell density was about 80%, NHEFs were divided by the ratio of 1:3 and cultured until cell density reached about 80%. […] were subcultured 4 times the same way as the above and used.
as §1

| Molecule | FAK phosphorylation level at Tyr-577 (FAK; HOK-16B cells on coated dishes, peptides 50 μg/60-mm dish) | increase in the number of NHEKs according to cell proliferation (NHEK) | increase in the number of NHEFs according to cell proliferation (NHEF) | changes of the FAK phosphorylation levels at Tyr-407, -576 and -861 (FAK; HOK-16B cells on coated dishes) | increase of FAK phosphorylation at Tyr-397 compared with the untreated control (FAK; HOK-16B cells, laminin 5 μg/ml or rLG3 25 μg/ml coating, p-FAK/t-FAK normalized) [fold] |
| --- | --- | --- | --- | --- | --- |
| PPFLMLLKGSTR [peptide P4] | higher than that in the cells spread on the other peptides; also recorded: lower than that on laminin | increased more than that on PS-coated plate | similar | – | – |
| rLG3: recombinant His6-tagged LG3 domain, residues 1128-1364 of human laminin α3 chain (protein, listed as Homo sapiens, His6 tag, recombinant His6-tagged LG3 domain, residues 1128-1364 of human laminin α3 chain) VRLNDTVGVTKKCSEDWKLVRSASFSRGGQLSFTDLGLPPTDHLQASFGFQTFQPSGILLDHQTWTRNLQVTLEDGYIELSTSDSGGPIFKSPQTYMDGLLHYVSVISDNSGLRLLIDDQLLRNSKRLKHISSSRQSLRLGGSNFEGCISNVFVQRLSLSPEVLDLTSNSLKRDVSLGGCSLNKPPFLMLLKGSTRFNKTKTFRINQLLQDTPVASPRSVKVWQDACSPLPKTQANH | – | – | – | not observed | 8.2 |
